Test results published in ChEMBL document CHEMBL6096738, “Optimization of Single Relaxin B-Chain Peptide Leads to the Identification of R2R01, a Potent, Long-Acting RXFP1 Agonist for Cardiovascular and Renal Diseases” (J Med Chem, 2025).
Starred links: 1 amine or outer side, 2 acyl side, 3 side chain; linkers in the order of their positions; H or OH if unused. Non-standard residues stand in square brackets, D forms with d. Residues, ends and D or L forms follow the SMILES beside them. Groups on a side chain read outwards from the residue. ξ: configuration not given here. *: point of attachment. X2 = CCCCCCCCCCCCCCCC(=O)N[C@@H](CCC(=O)N[C@@H](CCC(=O)N[C@@H](CCC(=O)NCCCOCCOCCOCCCNC(=O)CCC(=O)NCCCOCCOCCOCCCNC(=O)CCC(=O)NCCCOCCOCCOCCCN*)C(=O)O)C(=O)O)C(=O)O; PEG12 = NCCOCCOCCOCCOCCOCCOCCOCCOCCOCCOCCOCCOCCC(=O)O; γGlu = O=C(O)[C@H](CCC(=O)[*:2])N[*:1]; ξγGlu = O=C(O)C(CCC(=O)[*:2])N[*:1]; Stearoyl = CCCCCCCCCCCCCCCCCC(=O)*; Palmitoyl = CCCCCCCCCCCCCCCC(=O)*; Suc = O=C(CCC(=O)[*:2])[*:1]; αMeK = C[C@](N)(CCCCN)C(=O)O; Nle = CCCC[C@H](N)C(=O)O; AEEA = NCCOCCOCC(=O)O; Aib = CC(C)(N)C(=O)O

Experiments:
[1] = target: T1, Relaxin receptor 1 (Homo sapiens) (UniProt Q9HBX9); test: Agonist activity at human RXFP1 expressed in human OVCAR-5 cells assessed as intracellular cAMP accumulation by measuring maximal efficacy incubated for 30 mins by HTRF assay relative to control; type: functional, cell-based; settings: filed as agonist
T1 sequence (whole entry): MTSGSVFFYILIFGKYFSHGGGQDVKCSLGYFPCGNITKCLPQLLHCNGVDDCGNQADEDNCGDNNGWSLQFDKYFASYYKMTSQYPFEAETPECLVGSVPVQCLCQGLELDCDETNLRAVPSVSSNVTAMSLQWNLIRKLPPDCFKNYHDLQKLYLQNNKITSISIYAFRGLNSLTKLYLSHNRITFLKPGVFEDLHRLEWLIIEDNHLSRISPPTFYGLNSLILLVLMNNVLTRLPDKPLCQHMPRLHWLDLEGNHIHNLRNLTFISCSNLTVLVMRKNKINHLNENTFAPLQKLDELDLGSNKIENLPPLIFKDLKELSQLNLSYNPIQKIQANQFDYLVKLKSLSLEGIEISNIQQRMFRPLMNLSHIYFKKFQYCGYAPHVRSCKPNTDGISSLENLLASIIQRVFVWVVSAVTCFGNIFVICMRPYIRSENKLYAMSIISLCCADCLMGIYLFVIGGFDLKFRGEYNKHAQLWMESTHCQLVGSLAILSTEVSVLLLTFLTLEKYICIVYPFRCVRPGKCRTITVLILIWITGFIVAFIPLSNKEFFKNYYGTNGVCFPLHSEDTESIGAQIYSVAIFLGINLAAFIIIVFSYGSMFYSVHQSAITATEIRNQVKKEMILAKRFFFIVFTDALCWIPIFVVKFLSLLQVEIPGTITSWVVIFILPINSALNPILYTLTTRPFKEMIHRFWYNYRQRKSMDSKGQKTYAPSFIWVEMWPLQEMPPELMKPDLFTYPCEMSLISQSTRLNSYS

[2] = target: T2, Relaxin receptor 1 (Homo sapiens, UniProt Q9HBX9); test: Agonist activity at human RXFP1 expressed in 2%HSA treated human OVCAR-5 cells assessed as intracellular cAMP accumulation incubated for 30 mins with 2% HSA pretreated compound by HTRF assay; type: functional, cell-based
T2 sequence (Q9HBX9 whole entry): T1 sequence (whole entry)

[3] = target: T1, Relaxin receptor 1 (Homo sapiens); test: Agonist activity at human RXFP1 expressed in 2%HSA treated human OVCAR-5 cells assessed as intracellular cAMP accumulation by measuring maximal efficacy incubated for 30 mins with 2% HSA pretreated compound by HTRF assay relative to control; type: functional, cell-based; settings: filed as agonist
[4] = Half-life in male Sprague-Dawley rat at 1 mg/kg, iv measured after 198 hrs by LC-HRMS analysis; type: ADME, organism-based; settings: in vivo
[5] = target: T2, Relaxin receptor 1; test: Agonist activity at human RXFP1 expressed in human OVCAR-5 cells assessed as intracellular cAMP accumulation incubated for 30 mins by HTRF assay; type: functional, cell-based

SMILES	Emax [1] [%]	EC50 [2] [nM]	Emax [3] [%]	half-life [4] [h]	EC50 [5] [nM]
CCCCCCCCCCCCCCCC(=O)N[C@@H](CCC(=O)N[C@@H](CCC(=O)N[C@@H](CCC(=O)NCCCC[C@H](NC(=O)CCOCCOCCOCCOCCOCCOCCOCCOCCOCCOCCOCCOCCNC(=O)[C@H](CCCCNC(C)=O)NC(=O)[C@H](CCCCN)NC(=O)[C@H](CCCNC(=N)N)NC(=O)C(C)(C)NC(=O)[C@H](CO)NC(=O)[C@H](Cc1c[nH]c2ccccc12)NC(=O)[C@@H](NC(=O)[C@H](CO)NC(=O)[C@H](CCCC)NC(=O)CNC(=O)[C@H](CCC(=O)O)NC(=O)C(C)(C)NC(=O)C(C)(C)NC(=O)[C@@H](NC(=O)[C@H](CCCCNC(C)=O)NC(=O)C(C)(C)NC(=O)[C@H](CCCNC(=N)N)NC(=O)[C@@H](NC(=O)[C@H](CCCCN)NC(=O)[C@H](CCC(=O)O)NC(=O)[C@H](CCCNC(=N)N)NC(=O)CNC(=O)[C@H](CCC(=O)O)NC(=O)[C@H](CC(C)C)NC(C)=O)C(C)C)[C@@H](C)CC)[C@@H](C)O)C(N)=O)C(=O)O)C(=O)O)C(=O)O (Ac-LEGREKVR[Aib]K(Ac)I[Aib][Aib]EG[Nle]STWS[Aib]RKK(Ac)[PEG12]K([γGlu-γGlu-γGlu-Palmitoyl])-NH2)	86	46	82	6.9	
CCCCCCCCCCCCCCCC(=O)N[C@@H](CCC(=O)N[C@@H](CCC(=O)N[C@@H](CCC(=O)NCCCOCCOCCOCCCNC(=O)CCC(=O)NCCCOCCOCCOCCCNC(=O)CCC(=O)NCCCOCCOCCOCCCNC(=O)CCC(=O)NCCCC[C@H](NC(=O)[C@H](C)NC(=O)[C@H](CCCNC(=N)N)NC(=O)[C@@H](NC(=O)[C@H](CCCCN)NC(=O)[C@H](CCC(=O)O)NC(=O)[C@H](CCCNC(=N)N)NC(=O)CNC(=O)[C@H](CCC(=O)O)NC(=O)[C@H](CC(C)C)NC(C)=O)C(C)C)C(=O)N[C@H](C(=O)NC(C)(C)C(=O)NC(C)(C)C(=O)N[C@@H](CCC(=O)O)C(=O)NCC(=O)N[C@@H](CCC(N)=O)C(=O)N[C@@H](CO)C(=O)N[C@H](C(=O)N[C@@H](Cc1ccccc1)C(=O)N[C@@H](CO)C(=O)N[C@@](C)(CCCCN)C(=O)N[C@@H](CCCNC(=N)N)C(=O)N[C@@H](C)C(=O)N[C@@H](CCCCNC(C)=O)C(N)=O)[C@@H](C)O)[C@@H](C)CC)C(=O)O)C(=O)O)C(=O)O (Ac-LEGREKVRAK([Suc-X2])I[Aib][Aib]EGQSTFS[αMeK]RAK(Ac)-NH2)	95	19.4	94	11.5	0.06
CCCCCCCCCCCCCCCC(=O)N[C@@H](CCC(=O)N[C@@H](CCC(=O)N[C@@H](CCC(=O)NCCCOCCOCCOCCCNC(=O)CCC(=O)NCCCOCCOCCOCCCNC(=O)CCC(=O)NCCCOCCOCCOCCCNC(=O)CCC(=O)NCCCC[C@H](NC(=O)[C@@H](NC(=O)[C@H](CCCCNC(C)=O)NC(=O)[C@H](C)NC(=O)[C@H](CCCNC(=N)N)NC(=O)[C@@H](NC(=O)[C@H](CCCCN)NC(=O)[C@H](CCC(=O)O)NC(=O)[C@H](CCCNC(=N)N)NC(=O)CNC(=O)[C@H](CCC(=O)O)NC(=O)[C@H](CC(C)C)NC(C)=O)C(C)C)[C@@H](C)CC)C(=O)NC(C)(C)C(=O)N[C@@H](CCC(=O)O)C(=O)NCC(=O)N[C@@H](CCCC)C(=O)N[C@@H](CO)C(=O)N[C@H](C(=O)N[C@@H](Cc1ccccc1)C(=O)N[C@@H](CO)C(=O)N[C@@](C)(CCCCN)C(=O)N[C@@H](CCCNC(=N)N)C(=O)N[C@@H](C)C(=O)N[C@@H](CCCCNC(C)=O)C(N)=O)[C@@H](C)O)C(=O)O)C(=O)O)C(=O)O (Ac-LEGREKVRAK(Ac)IK([Suc-X2])[Aib]EG[Nle]STFS[αMeK]RAK(Ac)-NH2)	91	31.7	89		0.43
CCCCCCCCCCCCCCCC(=O)N[C@@H](CCC(=O)N[C@@H](CCC(=O)NC(CCC(=O)NCCOCCOCC(=O)NCCOCCOCC(=O)NCCOCCOCC(=O)NCCCC[C@H](NC(=O)[C@H](C)NC(=O)[C@H](CCCNC(=N)N)NC(=O)[C@@H](NC(=O)[C@H](CCCCN)NC(=O)[C@H](CCC(=O)O)NC(=O)[C@H](CCCNC(=N)N)NC(=O)CNC(=O)[C@H](CCC(=O)O)NC(=O)[C@H](CC(C)C)NC(C)=O)C(C)C)C(=O)N[C@H](C(=O)NC(C)(C)C(=O)NC(C)(C)C(=O)N[C@@H](CCC(=O)O)C(=O)NCC(=O)N[C@@H](CCCC)C(=O)N[C@@H](CO)C(=O)N[C@H](C(=O)N[C@@H](Cc1c[nH]c2ccccc12)C(=O)N[C@@H](CO)C(=O)NC(C)(C)C(=O)N[C@@H](CCCNC(=N)N)C(=O)N[C@@H](CCCCN)C(=O)N[C@@H](CCCCNC(C)=O)C(N)=O)[C@@H](C)O)[C@@H](C)CC)C(=O)O)C(=O)O)C(=O)O (stereo not given in full) (Ac-LEGREKVRAK([AEEA-AEEA-AEEA-ξγGlu-γGlu-γGlu-Palmitoyl])I[Aib][Aib]EG[Nle]STWS[Aib]RKK(Ac)-NH2)	78	> 2000			14.5
CCCCCCCCCCCCCCCC(=O)N[C@@H](CCC(=O)N[C@@H](CCC(=O)N[C@@H](CCC(=O)NCCCC[C@H](NC(=O)COCCOCCNC(=O)COCCOCCNC(=O)COCCOCCNC(=O)[C@H](CCCCNC(C)=O)NC(=O)[C@H](CCCCN)NC(=O)[C@H](CCCNC(=N)N)NC(=O)C(C)(C)NC(=O)[C@H](CO)NC(=O)[C@H](Cc1c[nH]c2ccccc12)NC(=O)[C@@H](NC(=O)[C@H](CO)NC(=O)[C@H](CCCC)NC(=O)CNC(=O)[C@H](CCC(=O)O)NC(=O)C(C)(C)NC(=O)C(C)(C)NC(=O)[C@@H](NC(=O)[C@H](CCCCNC(C)=O)NC(=O)[C@H](C)NC(=O)[C@H](CCCNC(=N)N)NC(=O)[C@@H](NC(=O)[C@H](CCCCN)NC(=O)[C@H](CCC(=O)O)NC(=O)[C@H](CCCNC(=N)N)NC(=O)CNC(=O)[C@H](CCC(=O)O)NC(=O)[C@H](CC(C)C)NC(C)=O)C(C)C)[C@@H](C)CC)[C@@H](C)O)C(N)=O)C(=O)O)C(=O)O)C(=O)O (Ac-LEGREKVRAK(Ac)I[Aib][Aib]EG[Nle]STWS[Aib]RKK(Ac)[AEEA][AEEA][AEEA]K([γGlu-γGlu-γGlu-Palmitoyl])-NH2)	91	77	80		1.6
CCCCCCCCCCCCCCCC(=O)N[C@@H](CCC(=O)N[C@@H](CCC(=O)N[C@@H](CCC(=O)NCCOCCOCC(=O)NCCOCCOCC(=O)NCCOCCOCC(=O)NCCCC[C@H](NC(=O)CNC(=O)[C@H](CCC(=O)O)NC(=O)C(C)(C)NC(=O)C(C)(C)NC(=O)[C@@H](NC(=O)[C@H](CCCCNC(C)=O)NC(=O)[C@H](C)NC(=O)[C@H](CCCNC(=N)N)NC(=O)[C@@H](NC(=O)[C@H](CCCCN)NC(=O)[C@H](CCC(=O)O)NC(=O)[C@H](CCCNC(=N)N)NC(=O)CNC(=O)[C@H](CCC(=O)O)NC(=O)[C@H](CC(C)C)NC(C)=O)C(C)C)[C@@H](C)CC)C(=O)N[C@@H](CO)C(=O)N[C@H](C(=O)N[C@@H](Cc1c[nH]c2ccccc12)C(=O)N[C@@H](CO)C(=O)NC(C)(C)C(=O)N[C@@H](CCCNC(=N)N)C(=O)N[C@@H](CCCCN)C(=O)N[C@@H](CCCCNC(C)=O)C(N)=O)[C@@H](C)O)C(=O)O)C(=O)O)C(=O)O (Ac-LEGREKVRAK(Ac)I[Aib][Aib]EGK([AEEA-AEEA-AEEA-γGlu-γGlu-γGlu-Palmitoyl])STWS[Aib]RKK(Ac)-NH2)	88	> 2000			
CCCCCCCCCCCCCCCCCC(=O)N[C@@H](CCC(=O)N[C@@H](CCC(=O)N[C@@H](CCC(=O)NCCOCCOCC(=O)NCCOCCOCC(=O)NCCOCCOCC(=O)NCCCC[C@H](NC(=O)[C@H](CCCCNC(C)=O)NC(=O)[C@H](CCCCN)NC(=O)[C@H](CCCNC(=N)N)NC(=O)C(C)(C)NC(=O)[C@H](CO)NC(=O)[C@H](Cc1c[nH]c2ccccc12)NC(=O)[C@@H](NC(=O)[C@H](CO)NC(=O)[C@H](CCC(N)=O)NC(=O)CNC(=O)[C@H](CCC(=O)O)NC(=O)C(C)(C)NC(=O)C(C)(C)NC(=O)[C@@H](NC(=O)[C@H](CCCCNC(C)=O)NC(=O)[C@H](C)NC(=O)[C@H](CCCNC(=N)N)NC(=O)[C@@H](NC(=O)[C@H](CCCCN)NC(=O)[C@H](CCC(=O)O)NC(=O)[C@H](CCCNC(=N)N)NC(=O)CNC(=O)[C@H](CCC(=O)O)NC(=O)[C@H](CC(C)C)NC(C)=O)C(C)C)[C@@H](C)CC)[C@@H](C)O)C(N)=O)C(=O)O)C(=O)O)C(=O)O (Ac-LEGREKVRAK(Ac)I[Aib][Aib]EGQSTWS[Aib]RKK(Ac)K([AEEA-AEEA-AEEA-γGlu-γGlu-γGlu-Stearoyl])-NH2)	88	47.2	82		
